{"source": "patent EP3818828A1", "about": "(priority 2019, dated 2021)", "key": {"[1]": {"test_system": "F. oxysporum f. sp. vasinfectum", "experiment": "Ex vivo mycelial growth inhibition, growth rate method", "format": "cell-based", "conditions": "1 mg/mL; for inhibition at 1000 µg/mL: Fusarium oxysporum", "outline": "(§1)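 Read-out is colony diameter by the cross method, converted to percent inhibition relative to the DMSO-only control. Plugs of 4 mm sat on PDA containing 5-7 graded concentrations of each DMSO-dissolved agent, in triplicate. Plates were held at 22±1.5°C for 7 days, or 10-20 days for some fungi.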"}, "Sclerotinia sclerotiorum": {"test_system": "Sclerotinia sclerotiorum", "experiment": "Ex vivo mycelial growth inhibition, growth rate method", "format": "cell-based", "conditions": "1 mg/mL", "outline": "as §1"}, "F. oxysporum f. sp. lini": {"test_system": "F. oxysporum f. sp. lini", "experiment": "Ex vivo mycelial growth inhibition, growth rate method", "format": "cell-based", "conditions": "1 mg/mL; for inhibition at 1000 µg/mL: Fusarium oxysporum", "outline": "as §1"}, "Coniella diplodiella": {"test_system": "Coniella diplodiella", "experiment": "Ex vivo mycelial growth inhibition, growth rate method", "format": "cell-based", "conditions": "1 mg/mL", "outline": "as §1"}, "Thanatephorus cucumeris": {"test_system": "Thanatephorus cucumeris", "experiment": "Ex vivo mycelial growth inhibition, growth rate method", "format": "cell-based", "conditions": "1 mg/mL", "outline": "as §1"}, "Botrytis cinerea": {"test_system": "Botrytis cinerea", "experiment": "Ex vivo mycelial growth inhibition, growth rate method", "format": "cell-based", "conditions": "1 mg/mL", "outline": "as §1"}, "Exserohilum turcicum": {"test_system": "Exserohilum turcicum", "experiment": "Ex vivo mycelial growth inhibition, growth rate method", "format": "cell-based", "conditions": "1 mg/mL", "outline": "as §1"}, "F. graminearum": {"test_system": "F. graminearum", "experiment": "microbe, parasite or virus in culture", "format": "cell-based", "conditions": "for Average Diameter of the Colony: F. graminearum, 1 mg/mL; for inhibition at 1000 µg/mL: Fusarium graminearum, read-out: Inhibition Rate"}, "Pythium ultimum": {"test_system": "Pythium ultimum", "experiment": "Supplementary ex vivo determination of antifungal activity", "format": "cell-based", "conditions": "compared with carbendazim", "procedure": "The inhibition of samples for testing on the mycelial growth of plant pathogenic fungi for testing is determined with a growth rate method. 3-(3',4'-methylenedioxy phenyl)-N-n-propyl acrylamide, 3-(3',4'-methylenedioxy phenyl)-piperidine acrylate and five control agents are dissolved with dimethyl sulfoxide (DMSO), then formulated at 5-7 concentrations of different gradients for test following the trial test results, with the same concentration of DMSO as the control solvent, each treatment in triplicate. Fungal cakes with a diameter of 4 mm are taken from the edge of the colony, inoculated into the center of a PDA plate containing different agents of different concentrations and the DMSO control, with one piece of fungal cake inoculated in each plate (with a diameter of […]), and incubated in a constant temperature incubator at a temperature of 22±1.5°C. 7 days later (10-20 days may be needed for some pathogenic fungi), the diameter of the colony is measured with a cross over method according to the mycelial growth profile of the control pathogenic fungi, then the inhibition rate of mycelial growth is calculated."}, "[2]": {"test_system": "Blumeria graminis f.sp.tritici", "experiment": "In-vivo greenhouse control of wheat powdery mildew", "conditions": "winter wheat, 0.20 mg/mL (active ingredients), application from early onset", "procedure": "3.88 g of 3-(3',4'-methylenedioxy phenyl)-N-n-propyl acrylamide was weighed and dissolved in 25 g of absolute ethyl alcohol, then 6 g of emulsifier 0203B was added, and mixed uniformly with stirring to get 10% of 3-(3',4'-methylenedioxy phenyl)-N-n-propyl acrylamide EC.\n5.61 g of 3-(3',4'-methylenedioxy phenyl)-piperidine acrylate was weighed and dissolved in 25 g of absolute ethyl alcohol, then 6 g of emulsifier 0203B was added, and mixed uniformly with stirring to get 14% of 3-(3',4'-methylenedioxy phenyl)-piperidine acrylate EC.\nWinter wheat (Variety: Huixian Red) was sown in pots in a greenhouse, and inoculated with a fresh spore suspension of Blumeria graminis f.sp.tritici by spraying on its leaves and stems at the stage of 2 leaves. The first application was started at the early onset of powdery mildew. Both sides of the leaves were sprayed evenly with a small hand-held sprayer so that the leaves were wetted by the liquor without loss. 10% of 3-(3',4'-methylenedioxy phenyl)-N-n-propyl acrylamide EC and 14% of 3-(3',4'-methylenedioxy phenyl)-piperidine acrylate EC were both diluted at two concentrations of 0.20 and 0.143 mg/mL (active ingredients), and the control agent, 15% of triazolone WP, was also diluted at two concentrations of 0.20 and 0.143 mg/mL (active ingredients), additionally clear water was used as the control. […]"}, "L.taurica": {"test_system": "L.taurica", "experiment": "Field efficiency test, tomato powdery mildew", "format": "in vivo", "conditions": "solar greenhouse", "procedure": "The formulation of emulsifiable concentrate is the same as that in Embodiment 3.\nTomatoes (Variety: Song Tian Fen Yang Yang) were planted in a solar greenhouse. 14% of 3-(3',4'-methylenedioxy phenyl)-piperidine acrylate EC was diluted at four concentrations of 1.00, 0.80, 0.667 and 0.50 mg/mL (active ingredients); the control agent, 72% cream urea·manganese zinc WP was diluted at a concentration of 1.00 mg/mL (active ingredients); additionally clear water was used as the control. The first application was started before the onset of L.taurica. The instrument for application was a WS-18D knapsack electric sprayer, which employed a cone nozzle. Each agent was formulated into the desired concentrations according to the usage amount of the control clear water. Both sides of the tomato leaves were sprayed evenly. Thereafter, applications were conducted every 7 days consecutively for 4 times. 10 days after the fourth application, the number of sick leaves at each grade of powdery mildew was investigated following the grading standard of 9 grades, to calculate the disease index and the control effect."}}, "data": [{"smiles": "CCCNC(=O)/C=C/c1ccc2c(c1)OCO2", "note": "[3-(3',4'-methylenedioxyphenyl)-N-n-propyl acrylamide]", "values": [{"measurement": "Average Diameter of the Colony", "setting": "[1]", "value": 3.03, "unit": "cm"}, {"measurement": "inhibition at 1000 µg/mL", "setting": "[1]", "value": 58.1, "unit": "%"}, {"measurement": "Average Diameter of the Colony", "setting": "Sclerotinia sclerotiorum", "value": 3.28, "unit": "cm"}, {"measurement": "inhibition at 1000 µg/mL", "setting": "Sclerotinia sclerotiorum", "value": 61.9, "unit": "%"}, {"measurement": "Average Diameter of the Colony", "setting": "F. oxysporum f. sp. lini", "value": 6.30, "unit": "cm"}, {"measurement": "inhibition at 1000 µg/mL", "setting": "F. oxysporum f. sp. lini", "value": 30, "unit": "%"}, {"measurement": "Average Diameter of the Colony", "setting": "Coniella diplodiella", "value": 0.00, "unit": "cm"}, {"measurement": "inhibition at 1000 µg/mL", "setting": "Coniella diplodiella", "value": 100, "unit": "%"}, {"measurement": "Average Diameter of the Colony", "setting": "Thanatephorus cucumeris", "value": 3.51, "unit": "cm"}, {"measurement": "inhibition at 1000 µg/mL", "setting": "Thanatephorus cucumeris", "value": 59.2, "unit": "%"}, {"measurement": "Average Diameter of the Colony", "setting": "Botrytis cinerea", "value": 1.35, "unit": "cm"}, {"measurement": "inhibition at 1000 µg/mL", "setting": "Botrytis cinerea", "value": 82, "unit": "%"}, {"measurement": "Average Diameter of the Colony", "setting": "Exserohilum turcicum", "value": 1.44, "unit": "cm"}, {"measurement": "inhibition at 1000 µg/mL", "setting": "Exserohilum turcicum", "value": 76.8, "unit": "%"}, {"measurement": "Average Diameter of the Colony", "setting": "F. graminearum", "value": 3.49, "unit": "cm"}, {"measurement": "inhibition at 1000 µg/mL", "setting": "F. graminearum", "value": 59.4, "unit": "%"}, {"measurement": "antifungal activity against Pythium ultimum", "setting": "Pythium ultimum", "value": "superior to that of the control agent, carbendazim"}, {"measurement": "Control Effect", "setting": "[2]", "value": 86.97, "unit": "%"}]}, {"smiles": "O=C(/C=C/c1ccc2c(c1)OCO2)N1CCCCC1", "note": "[3-(3',4'-methylenedioxyphenyl)-piperidine acrylate]", "values": [{"measurement": "Average Diameter of the Colony", "setting": "[1]", "value": 0.40, "unit": "cm"}, {"measurement": "inhibition at 1000 µg/mL", "setting": "[1]", "value": 94.5, "unit": "%"}, {"measurement": "Average Diameter of the Colony", "setting": "Sclerotinia sclerotiorum", "value": 0.00, "unit": "cm"}, {"measurement": "inhibition at 1000 µg/mL", "setting": "Sclerotinia sclerotiorum", "value": 100, "unit": "%"}, {"measurement": "Average Diameter of the Colony", "setting": "F. oxysporum f. sp. lini", "value": 2.73, "unit": "cm"}, {"measurement": "inhibition at 1000 µg/mL", "setting": "F. oxysporum f. sp. lini", "value": 69.7, "unit": "%"}, {"measurement": "Average Diameter of the Colony", "setting": "Coniella diplodiella", "value": 0.00, "unit": "cm"}, {"measurement": "inhibition at 1000 µg/mL", "setting": "Coniella diplodiella", "value": 100, "unit": "%"}, {"measurement": "Average Diameter of the Colony", "setting": "Thanatephorus cucumeris", "value": 0.00, "unit": "cm"}, {"measurement": "inhibition at 1000 µg/mL", "setting": "Thanatephorus cucumeris", "value": 100, "unit": "%"}, {"measurement": "Average Diameter of the Colony", "setting": "Botrytis cinerea", "value": 0.25, "unit": "cm"}, {"measurement": "inhibition at 1000 µg/mL", "setting": "Botrytis cinerea", "value": 96.7, "unit": "%"}, {"measurement": "Average Diameter of the Colony", "setting": "Exserohilum turcicum", "value": 0.34, "unit": "cm"}, {"measurement": "inhibition at 1000 µg/mL", "setting": "Exserohilum turcicum", "value": 94.5, "unit": "%"}, {"measurement": "Average Diameter of the Colony", "setting": "F. graminearum", "value": 0.00, "unit": "cm"}, {"measurement": "inhibition at 1000 µg/mL", "setting": "F. graminearum", "value": 100, "unit": "%"}, {"measurement": "antifungal activity against Pythium ultimum", "setting": "Pythium ultimum", "value": "superior to that of the control agent, carbendazim"}, {"measurement": "Control Effect", "setting": "[2]", "value": 59.11, "unit": "%"}, {"measurement": "Control Effect", "setting": "L.taurica; 0.50 mg/mL", "value": 81.68, "unit": "%"}, {"measurement": "Control Effect", "setting": "L.taurica; 0.667 mg/mL", "value": 88.19, "unit": "%"}, {"measurement": "Control Effect", "setting": "L.taurica; 0.80 mg/mL", "value": 90.36, "unit": "%"}, {"measurement": "Control Effect", "setting": "L.taurica; 1.00 mg/mL", "value": 97.85, "unit": "%"}]}]}
